Assay results as given in patent publication US6632832B1 (Dabur Research Foundation, priority 2002, dated 2003).
In brackets after ≈: the same amount, converted by molar mass.

Columns and labels:
[1] = tested on: PDGF dependent proliferation in human pancreatic cancer cells (MiaPaCa2); experiment: PDGF dependent proliferation, percent viable cells by MTT in sera free conditions; assay type: cell-based; conditions: Carvedilol 20 ug/ml for 16 hours, then varying PDGF for 48 hours
Experimental: Briefly, 10000 human pancreatic cancer cells (MiaPaCa2) were seeded per well in a 96-well culture plate in DMEM containing 5% fetal calf serum (FCS). All experiments were carried out in triplicates at 37° C. in a CO2 incubator. The cells were incubated for a period of 12 hours, washed once with PBS and the medium was changed to DMEM without FCS. […] The untreated control cells were treated with 1% DMSO in DMEM. […] The percent viable cells in absence and presence of Carvedilol was determined in an MTT assay in vitro.

[2] = tested on: EGF dependent proliferation in human pancreatic cancer cells (MiaPaCa2); experiment: EGF dependent proliferation, percent viable cells by MTT in sera free conditions; assay type: cell-based; set-up: dose or concentration left out as unconfirmed; conditions: Carvedilol for 16 hours, then varying EGF for 48 hours
Experimental: Briefly, 10000 human pancreatic cancer cells (MiaPaCa2) were seeded per well in a 96-well culture plate in DMEM containing 5% FCS. All experiments were carried out in triplicates at 37° C. in a CO2 incubator. The cells were incubated for a period of 12 hours, washed once with PBS and the medium was changed to DMEM without Fetal calf serum (FCS). […] The untreated control cells were treated with 1% DMSO in DMEM. The cells were washed with PBS and incubated with varying concentrations of EGF in DMEM without FCS for a period of 48 hours. The percent viable cells in absence and presence of Carvedilol was determined in an MTT assay in vitro.

Acute toxicity in mice = assay type: in vivo; conditions: Swiss albino mice weighing 25 grams, observed for two weeks
Experimental: Acute toxicity studies were performed using two preferred routes of administration: intravenous and oral administration.

[3] = tested on: human pancreatic cancer cells (MiaPaCa2); experiment: Cytotoxicity abrogation assay with intracellular blocking of PI3 kinase by Wortmannin; assay type: cell-based
Experimental: (§1) Briefly, 10000 human pancreatic cancer cells (MiaPaCa2) were seeded per well in a 96-well culture plate in DMEM containing 5% FCS. All experiments were carried out in triplicate at 37° C. in CO2 incubator. The plates were incubated overnight to allow complete reattachment of the cells. Subsequently, the medium was replaced with DMEM. The cells were incubated with varying concentrations of Wortmannin,the specific inhibitor of PI3 kinase for a period of three hours. Wortmannin was dissolved in 0.5% DMSO. The control cells were treated with 0.5% DMSO. The cells were washed with PBS, and the medium was changed to fresh DMEM.

Protein Kinase C (PKC) = experiment: PKC activity ELISA on lysates of treated MiaPaCa2 cells; assay type: cell-based, human; conditions: 5-100 ug/ml for 15 minutes
Experimental: Briefly 0.5×10^6 cells of human pancreatic cancer cells (MiaPaCa2) were plated per well in 6 well tissue culture plates in 2 ml of DMEM containing 10% Fetal calf serum. The cells were incubated overnight at 37° C. and 5% CO2. The medium was changed to DMEM without serum. […] The control cells were treated with 1% DMSO in DMEM. […] The cells were scraped with sterile cell scrapers, and spun at 1500 rpm for 5 minutes. The cell pellet was dissolved in 1 ml of ice cold sample preparation buffer (50 mM Tris-HCl, 50 mM 2-mercaptoethanol, 10 mM EGTA, 5 mM EDTA, 1 mM PMSF, 10 mM Benzamidine, pH 7.5). The cell pellets were sonicated four to five times each with time intervals of 5-10 seconds. The cells were centrifuged at 100,000×g for a period of 60 minutes at 4° C. The supernatant was aspirated from each set of experiments. The reaction mixture for quantitation of the PKC activity contained 25 mM Tris-HCl (pH7.0), 3 mM Mgc12, 0.1 mM ATP, 2 mM CaCl2, 50 ug/ml Phosphatidylserine, 0.5 mM EDTA, 1 mM EGTA, and 5 mM 2 mercaptoethanol. The lysates from the cells not treated with Carvedilol were the control experiments. The reaction mixture was preincubated for 5 minutes at 25° C. […] The optical density was read at 492 nm, and the PKC activity expressed as percent of that in control cells.

[4] = tested on: Human Colon, Ovary, melanoma, Leukemia, Glioblastoma, Prostate, oral and Lung tumor cell lines; experiment: MTT cytotoxicity assay, summary over the tumor cell line panel; assay type: cell-based
Experimental: (§2) After 72 hours, the assay was terminated and percent cyotoxicities calculated.

Cyclooxygenase 2 enzyme = experiment: COX2 activity by PGE2 quantitation in MiaPaCa2 cells; assay type: cell-based, human
Experimental: 1×10^6 human pancreatic cancer cells (MiaPaCa2) were plated in 6 well plates in RPMI containing 10% FCS. The cells were incubated for a period of 24 hours at 37° C. in 5% CO2. The medium was changed to DMEM without serum. […] All experiments were carried out in duplicates. […] The medium was aspirated to remove Bisindolemaleimide, and the cells were washed twice with PBS. […] The cells were incubated at 37° C. for one hour. Indomethacin at a concentration of 10 ug/ml was added to the wells to block the COX enzyme. […] The cells were lysed (2.5% dodecyltrimethylammonium) and incubated for 10 minutes at room temperature. The cell lysates were transferred to microtitre plate coated with goat anti mouse Ig coated plate. 50 microliter of PGE2 standards ranging from 2.5 to 320 pg/ml were added to the microtitre plate in duplicates. 50 microliter of mouse anti PGE2 and 50 microliter of PGE2 conjugated peroxidase was added to the wells. The plate was covered and incubated at room temperature for one hour on a microtitre plate shaker. The wells were aspirated and washed 4 times with suitable was buffer. 150 microlire of enzyme substrate was added to all the wells. […] The OD was read at 450 nm.
The levels of secreted and intracellular PGE2 were quantitated in cells treated with or without bisindolemaleimide.

[5] = tested on: B16F10 melanoma tumor xenografts; experiment: B16F10 melanoma xenograft model in nude mice; assay type: in vivo, Balb/c athymic mice; conditions: for tumor inhibition based on tumor volumes compared with untreated controls: oral gavage once a day, Day 19
Experimental: Melanoma tumor xenografts were initiated in Balb/c athymic mice by subcutaneous inoculation of a single cell suspension of B16F10 cells (10×10^6 cells/100 μL). The tumor-bearing mice were divided into three groups of 4 animals each. […] The third group served as control. […] The anti-tumor activity was monitored by measuring the tumors using a vernier caliper every fourth day and calculating volumes using the formula 0.4×W^2×L(W=smaller dia, L=larger dia,).

[6] = tested on: human pancreatic cancer cells (MiaPaCa2); experiment: Cytotoxicity abrogation assay with intracellular blocking of PKC by Bisindolylmaleimide; assay type: cell-based
Experimental: as §1, with “of Bisindolylmaleimide, the” for “of Wortmannin,the”, “of PKC” for “of PI3 kinase”, “hours. Bisindolylmaleimide” for “hours. Wortmannin”, “in 1% DMSO” for “in 0.5% DMSO.”, “with 1%” for “with 0.5%”

MiaPaCa.2 (pancreas) = experiment: MTT cytotoxicity assay, 72 hours; assay type: cell-based, human; conditions: 72 h MTT
Experimental: as §2

U87.MG (glioblastoma) = experiment: MTT cytotoxicity assay, 72 hours; assay type: cell-based, human; conditions: 72 h MTT
Experimental: as §2

PA1 (ovary) = experiment: MTT cytotoxicity assay, 72 hours; assay type: cell-based, human; conditions: 72 h MTT
Experimental: as §2

KB (oral) = experiment: MTT cytotoxicity assay, 72 hours; assay type: cell-based, human; conditions: 72 h MTT
Experimental: as §2

B16F10 (melanoma) = experiment: MTT cytotoxicity assay, 72 hours; assay type: cell-based, human; conditions: 72 h MTT
Experimental: as §2

HBL100 (breast) = experiment: MTT cytotoxicity assay, 72 hours; assay type: cell-based, human; conditions: 72 h MTT
Experimental: as §2

PTC (colon) = experiment: MTT cytotoxicity assay, 72 hours; assay type: cell-based, human; conditions: 72 h MTT
Experimental: as §2

L132 (lung) = experiment: MTT cytotoxicity assay, 72 hours; assay type: cell-based, human; conditions: 72 h MTT
Experimental: as §2

DU145 (prostate) = experiment: MTT cytotoxicity assay, 72 hours; assay type: cell-based, human; conditions: 72 h MTT
Experimental: as §2

MOLT4 (leukemia) = experiment: MTT cytotoxicity assay, 72 hours; assay type: cell-based, human; conditions: MOLT-4 (Leukemia), 72 h MTT, Table 2
Experimental: as §2

COc1ccccc1OCCNCC(O)COc1cccc2[nH]c3ccccc3c12 (racemic) [Carvedilol, (±)-1-(carbazol-4-yloxy)-3-[(2-(o-methoxyphenoxy)ethyl]amino]-2-propanol]
effect on PDGF dependent proliferation (FIG. 3) [1]: inhibits the PDGF dependent proliferation in human pancreatic cancer cells in a dose dependent manner
effect on EGF dependent proliferation (FIG. 2) [2]: inhibits the EGF dependent proliferation in pancreatic cancer cells in a dose dependent manner
safe dose (Acute toxicity in mice; i.v.): 0.15 mg
safe dose (Acute toxicity in mice; oral): 3 mg
cytotoxicity at 20 µg/mL ([3]; MIA PaCa-2, 48 h, read-out: % Cytotoxicity of Carvedilol (20 ug/ml), MiaPaCa2, 48 hours, Wortamannin Nil): 50%
cytotoxicity at 20 µg/mL ([3]; MIA PaCa-2, read-out: % Cytotoxicity of Carvedilol (20 ug/ml), MiaPaCa2, 48 hours, preincubated with Wortamannin 0.5 nM): 22%
cytotoxicity at 20 µg/mL ([3]; MIA PaCa-2, read-out: % Cytotoxicity of Carvedilol (20 ug/ml), MiaPaCa2, 48 hours, preincubated with Wortamannin 1.0 nM): 20%
cytotoxicity at 20 µg/mL ([3]; MIA PaCa-2, read-out: % Cytotoxicity of Carvedilol (20 ug/ml), MiaPaCa2, 48 hours, preincubated with Wortamannin 1.5 nM): 19%
cytotoxicity at 20 µg/mL ([3]; MIA PaCa-2, read-out: % Cytotoxicity of Carvedilol (20 ug/ml), MiaPaCa2, 48 hours, preincubated with Wortamannin 2.0 nM): 18%
effect on PKC activity (FIG. 4) (Protein Kinase C (PKC)): inhibits the PKC activity in a dose dependent manner
cytotoxicity at a fixed concentration (FIG. 1) ([4]; 20 μg/ml, all of the above-mentioned tumor cell lines, except oral): high cytotoxicity effect
ED50 values ([4]; Colon, Ovary, melanoma, Leukemia, Glioblastoma, Prostate, oral and Lung tumor cell lines): less than 20 μg/ml
effect on COX2 activity (FIG. 5) (Cyclooxygenase 2 enzyme; MiaPaCa2, 10 ug/ml and 20 ug/ml for 4 hours, secreted and intracellular PGE2): inhibits the COX2 activity
effect on COX 2 activity after blocking of PKC (Cyclooxygenase 2 enzyme; MiaPaCa2 preincubated with Bisindolemaleimide (1 uM) for 4 hours): abrogates the effect of Carvedilol on COX 2 activity
tumor inhibition based on tumor volumes compared with untreated controls ([5]; 300 ug/day): 37.3%
tumor inhibition based on tumor volumes compared with untreated controls ([5]; 600 ug/day): 59.1%
pattern of tumor growth (FIG. 6) ([5]; both doses (300 and 600 ug/day oral)): delayed tumor growth and tumor regression
cytotoxicity at 20 µg/mL ([6]; MIA PaCa-2, 48 h, read-out: % Cytotoxicity of Carvedilol (20 ug/ml), MiaPaCa2, 48 hours, Bisindolemaleimide Nil): 50%
cytotoxicity at 20 µg/mL ([6]; MIA PaCa-2, read-out: % Cytotoxicity of Carvedilol (20 ug/ml), MiaPaCa2, 48 hours, preincubated with Bisindolemaleimide 1.0 uM): 22%
cytotoxicity at 20 µg/mL ([6]; MIA PaCa-2, read-out: % Cytotoxicity of Carvedilol (20 ug/ml), MiaPaCa2, 48 hours, preincubated with Bisindolemaleimide 2.5 uM): 20%
cytotoxicity at 20 µg/mL ([6]; MIA PaCa-2, read-out: % Cytotoxicity of Carvedilol (20 ug/ml), MiaPaCa2, 48 hours, preincubated with Bisindolemaleimide 5.0 uM): 20%
ED50 (MiaPaCa.2 (pancreas); MiaPaCa.2 (Pancreas), Table 2): 33.0 ± 4.6 µg/mL (≈ 81.2 µM)
ED50 (MiaPaCa.2 (pancreas); MiaPaCa.2 (pancreas)): 33.0 ± 4.6 µg/mL (≈ 81.2 µM)
ED50 (U87.MG (glioblastoma); U87.MG (glioblastoma)): 14.5 ± 2.2 µg/mL (≈ 35.7 µM)
ED50 (U87.MG (glioblastoma); U87MG (Glioblastoma), Table 2): 14.5 ± 2.2 µg/mL (≈ 35.7 µM)
ED50 (PA1 (ovary); PA1 (ovary)): 11.5 ± 2.1 µg/mL (≈ 28.3 µM)
ED50 (PA1 (ovary); PA-1 (Ovary), Table 2): 11.5 ± 2.1 µg/mL (≈ 28.3 µM)
ED50 (KB (oral); KB (Oral), Table 2): 12.0 ± 1.8 µg/mL (≈ 29.5 µM)
ED50 (KB (oral); KB (oral)): 12.0 ± 1.8 µg/mL (≈ 29.5 µM)
ED50 (B16F10 (melanoma); B16.F10 (Melanoma), Table 2): 10.5 ± 1.7 µg/mL (≈ 25.8 µM)
ED50 (B16F10 (melanoma); B16F10 (melanoma)): 10.5 ± 1.7 µg/mL (≈ 25.8 µM)
ED50 (HBL100 (breast); HBL100 (Breast), Table 2): 29.0 ± 4.2 µg/mL (≈ 71.3 µM)
ED50 (HBL100 (breast); HBL100 (breast)): 29.0 ± 4.2 µg/mL (≈ 71.3 µM)
ED50 (PTC (colon); PTC (Colon), Table 2): 7.0 ± 0.7 µg/mL (≈ 17.2 µM)
ED50 (PTC (colon); PTC (colon)): 7.0 ± 0.7 µg/mL (≈ 17.2 µM)
ED50 (L132 (lung); L132 (Lung), Table 2): 16.0 ± 3.1 µg/mL (≈ 39.4 µM)
ED50 (L132 (lung); L132 (lung)): 16.0 ± 3.1 µg/mL (≈ 39.4 µM)
ED50 (DU145 (prostate)): 9.0 ± 0.9 µg/mL (≈ 22.1 µM)

COc1ccccc1OCCNC[C@@H](O)COc1cccc2[nH]c3ccccc3c12 (single isomer, unassigned) [R(+) isomer]
ED50 (MiaPaCa.2 (pancreas); MiaPaCa.2 (Pancreas), Table 2): 27.0 ± 2.7 µg/mL (≈ 66.4 µM)
ED50 (U87.MG (glioblastoma); U87MG (Glioblastoma), Table 2): 14.5 ± 2.9 µg/mL (≈ 35.7 µM)
ED50 (PA1 (ovary); PA-1 (Ovary), Table 2): 10.0 ± 1.5 µg/mL (≈ 24.6 µM)
ED50 (KB (oral); KB (Oral), Table 2): 12.0 ± 2.6 µg/mL (≈ 29.5 µM)
ED50 (B16F10 (melanoma); B16.F10 (Melanoma), Table 2): 10.5 ± 1.6 µg/mL (≈ 25.8 µM)
ED50 (HBL100 (breast); HBL100 (Breast), Table 2): 32.8 ± 3.7 µg/mL (≈ 80.7 µM)
ED50 (PTC (colon); PTC (Colon), Table 2): 7.0 ± 0.4 µg/mL (≈ 17.2 µM)
ED50 (L132 (lung); L132 (Lung), Table 2): 16.0 ± 3.1 µg/mL (≈ 39.4 µM)
ED50 (MOLT4 (leukemia)): 12.0 ± 1.6 µg/mL (≈ 29.5 µM)
